# Results reported in patent US20170202838A1, “IMMUNOMODULATOR” (TAIHO PHARMACEUTICAL CO., LTD., priority 2015, published 2017).
# Legend:
# MC38 [1] = test: In vitro growth of mouse colon cancer cell line MC38, CellTiter-Glo2.0 (Reference Example 1); type: cell-based; details: MC38, 3 days culture
# Description: (§1) The mouse melanoma cell lines B16F10 and K1735M2 and the mouse colon cancer cell line MC38 were seeded in a 96-well plate at 3×10^3 cells/well. Compound (I) or the EGFR tyrosine kinase inhibitor (i.e., Erlotinib, Afatinib, AZD9291, or Co1686 (Rociletinib)) that had been diluted to the given concentration was added 24 hours later. Thereafter, culture was conducted for 3 days, and the number of cells was determined using CellTiter-Glo2.0 (Promega, G9243).
# EG.7-OVA = test: Peripheral blood immunocyte analysis in mouse model subcutaneously implanted with OVA-expressing thymoma cell line (Example 5); type: in vivo; details: Compound (I) 50 mg/kg, 14 days after implantation, compared with control group and anti-PD-1 antibody group (FIG. 6)
# Description: A cell suspension of the OVA-expressing mouse thymoma cell line (EG.7-OVA) was prepared with the use of PBS(-) and 50% Matrigel, and the cell suspension (1×10^4 cells/mouse) was implanted into the syngeneic C57BL/6n mice via subcutaneous injection. The mice were divided into groups based on their body weights 1 day after implantation, and Compound (I) was administered thereto at 50 mg/kg or the anti-PD-1 antibody was administered thereto at 100 μg/mouse. A control group to which neither Compound (I) nor the anti-PD-1 antibody had been administered was also prepared. The peripheral blood was sampled 14 days after implantation and analyzed via flow cytometry with the use of antibodies each reacting with a relevant immunocyte surface marker, so as to determine the relative number of CD4-positive cells, CD8-positive cells, and CD4-negative, CD8-negative, and NK1.1-positive cells. […] In the group to which Compound (I) had been administered, the number of all cells increased, compared with the control group and the group to which the anti-PD-1 antibody had been administered.
# B16F10 = test: In vitro growth of mouse melanoma cell line B16F10, CellTiter-Glo2.0 (Reference Example 1); type: cell-based; details: B16F10, 3 days culture
# Description: as §1
# MC38 [2] = test: Immune-system-associated gene expression in tumors via real-time PCR (Example 11); type: in vivo, mouse; details: final day of administration, relative to control
# Description: A cell suspension of the mouse colon cancer cell line MC38 was prepared with the use of PBS(-) and 50% Matrigel, and the cell suspension was injected subcutaneously into mice at 1×10^6 cells/mouse. The mice were divided into groups when the average subcutaneous tumor volume reached approximately 50 mm^3, Compound (I) (50 mg/kg) or the anti-PD-1 antibody (50 μg/mouse) was administered thereto alone or Compound (I) (50 mg/kg) was administered in combination with the anti-PD-1 antibody (50 μg/mouse), and the tumor volume was measured with the elapse of time. The tumor volume was determined on the basis of the longer diameter and the shorter diameter of the tumor measured percutaneously in accordance with Equation A shown below.
# FIGS. 14 to 16 show changes in the immune-system-associated gene expression levels in tumors of the groups on the final day of administration of Compound (I). The tumor samples were obtained from the groups on the final day of administration of Compound (I) to prepare cDNA samples. The prepared cDNA samples were subjected to gene expression analysis via real-time PCR with the use of various immune-system-associated gene probes, and the results thereof were plotted. β-Actin was used as a control. Each plot indicates a gene expression level relative to a value of one of the controls. In the group to which Compound (I) had been administered, CD3, CD4, CD8, NK1.1, IL-2, IFN-γ, Perforin, Granzyme B, and CD69 gene expression levels increased, compared with those in the group to which Compound (I) had not been administered.
# K1735M2 = test: In vitro growth of mouse melanoma cell line K1735M2, CellTiter-Glo2.0 (Reference Example 1); type: cell-based; details: K1735M2, 3 days culture
# Description: as §1
# mouse spleen cells = test: Induction of IL-2 production of mouse spleen cells stimulated with anti-CD3 antibody and anti-CD28 antibody (Example 1); type: cell-based
# Description: The mouse spleen was extracted, grinded with glass slides with frosted areas, and then subjected to hemolysis, so as to obtain spleen cells. The resulting spleen cells were introduced into a complete medium (i.e., RPMI-1640 supplemented with 10% heat-inactivated FBS, 100 U/ml penicillin, 100 μg/ml streptomycin, and 55 μM 2-mercaptoethanol) to a cell density of 2×10^6 cells/ml, the anti-CD3 antibody and the anti-CD28 antibody were added thereto to the final concentrations of 3 μg/ml and 0.5 μg/ml, respectively, and Compound (I) was further added thereto to each final concentration. The culture solution was seeded in a 96-well plate at 200 μl/well and then cultured in an incubator at 37° C. in the presence of 5% CO2 for 2 days. The culture supernatant was recovered, and the concentration of IL-2 contained therein was measured via ELISA using anti-mIL-2 antibody.
# Also, culture was conducted in the same manner with the addition of the anti-CD3 antibody at a variable final concentration, the anti-CD28 antibody at the final concentration of 0.5 μg/ml, and Compound (I) at the final concentration of 0.0 μM or 0.1 μM, and the IL-2 concentration in the culture supernatant was measured.
# [3] = tested on: human peripheral blood mononuclear cells; test: Induction of IL-2 production of PHA-M-stimulated human peripheral blood mononuclear cells (Example 2); type: cell-based; details: PHA-M 5 μg/ml, 3 days, ELISA (FIG. 3)
# Description: Human peripheral blood mononuclear cells were introduced into a human complete medium (i.e., RPMI-1640 supplemented with 10% heat-inactivated FBS, 100 U/ml penicillin, and 100 μg/ml streptomycin) to prepare a cell suspension (1×10^6 cells/ml). Phytohemagglutinin M (PHA-M) was added thereto to the final concentration of 5 μg/ml, and Compound (I) or an EGFR tyrosine kinase inhibitor (AZD9291) was further added thereto to each final concentration. This culture solution was seeded in a 96-well plate at 200 μl/well and then cultured in an incubator at 37° C. in the presence of 5% CO2 for 3 days. The culture supernatant was recovered, and the concentration of IL-2 therein was measured via ELISA using the anti-hIL-2 antibody.
smiles,measurement,setting,value
"C=CC(=O)N[C@H]1CCc2c(-c3cnc4ccccc4c3)c3c(N)ncnc3n2C1 [Compound (I), (S)—N-(4-amino-5-(quinolin-3-yl)-6,7,8,9-tetrahydropyrimido[5,4-b]indolizin-8-yl)acrylamide]",suppression of cell growth (number of cells),MC38 [1],did not suppress the growth of any cells
same,"relative number of CD4-negative, CD8-negative, and NK1.1-positive cells in peripheral blood",EG.7-OVA,increased
same,relative number of CD4-positive cells in peripheral blood,EG.7-OVA,increased
same,relative number of CD8-positive cells in peripheral blood,EG.7-OVA,increased
same,suppression of cell growth (number of cells),B16F10,did not suppress the growth of any cells
same,CD3 gene expression level in tumors,MC38 [2]; β-Actin control (FIG. 14),increased
same,CD4 gene expression level in tumors,MC38 [2]; β-Actin control (FIG. 14),increased
same,CD8 gene expression level in tumors,MC38 [2]; β-Actin control (FIG. 14),increased
same,IFN-γ gene expression level in tumors,MC38 [2]; β-Actin control (FIG. 15),increased
same,IL-2 gene expression level in tumors,MC38 [2]; β-Actin control (FIG. 15),increased
same,NK1.1 gene expression level in tumors,MC38 [2]; β-Actin control (FIG. 15),increased
same,CD69 gene expression level in tumors,MC38 [2]; β-Actin control (FIG. 16),increased
same,Granzyme B gene expression level in tumors,MC38 [2]; β-Actin control (FIG. 16),increased
same,Perforin gene expression level in tumors,MC38 [2]; β-Actin control (FIG. 16),increased
same,suppression of cell growth (number of cells),K1735M2,did not suppress the growth of any cells
same,concentration of IL-2 produced by mouse spleen cells in the culture supernatant,"mouse spleen cells; anti-CD3 antibody 3 μg/ml and anti-CD28 antibody 0.5 μg/ml constant, Compound (I) variable, 2 days, ELISA (FIG. 1)",increased as the amount of Compound (I) added increased
same,concentration of IL-2 produced by mouse spleen cells in the culture supernatant,"mouse spleen cells; anti-CD3 antibody variable, anti-CD28 antibody 0.5 μg/ml, Compound (I) 0.1 μM vs 0.0 μM (FIG. 2)",IL-2 production was induced upon stimulation with the anti-CD3 antibody
same,concentration of IL-2 produced by human peripheral blood mononuclear cells in the culture supernatant,[3],induced IL-2 production
